Measured values: ChEMBL document CHEMBL1201862, “PubChem BioAssay data set” (2004)
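Protocol summary: plate cells (96-well), add compound at 5 concentrations, incubate 48 h, interpolate endpoints linearly. Abbreviation: GI50, concentration required for 50% inhibition of growth.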 Calls of active or inactive are those of the source. No stated cut-off is given here; in the data, active = GI50 up to about 1.1 µM and inactive = higher.

Tests used:
Experiment in all cases: NCI-60 cell line screen, 48 h
HCT-116 = system: HCT-116
SK-MEL-2 = system: SK-MEL-2
M14 = system: M14
SF-268 = system: SF-268
OVCAR-8 = system: OVCAR-8
HOP-62 = system: HOP-62
IGROV-1 = system: IGROV-1
EKVX = system: EKVX
KM12 = system: KM12
UO-31 = system: UO-31
CCRF-CEM = system: CCRF-CEM
SK-MEL-28 = system: SK-MEL-28
MCF7 = system: MCF7
HL-60 = system: HL-60
BT-549 = system: BT-549
COLO 205 = system: COLO 205
MDA-MB-435 = system: MDA-MB-435
T47D = system: T47D
ACHN = system: ACHN
RXF 393 = system: RXF 393
SF-539 = system: SF-539
786-0 = system: 786-0
CAKI-1 = system: CAKI-1
SK-MEL-5 = system: SK-MEL-5
HCC 2998 = system: HCC 2998
UACC-257 = system: UACC-257
HT-29 = system: HT-29
HOP-92 = system: HOP-92
NCI/ADR-RES = system: NCI/ADR-RES
UACC-62 = system: UACC-62
RPMI-8226 = system: RPMI-8226
OVCAR-4 = system: OVCAR-4
SNB-19 = system: SNB-19
MOLT-4 = system: MOLT-4
SNB-75 = system: SNB-75
Hs-578T = system: Hs-578T
SF-295 = system: SF-295
NCI-H226 = system: NCI-H226
OVCAR-3 = system: OVCAR-3
A498 = system: A498
OVCAR-5 = system: OVCAR-5
TK-10 = system: TK-10
SW-620 = system: SW-620
NCI-H23 = system: NCI-H23
K562 = system: K562
U-251 = system: U-251
NCI-H522 = system: NCI-H522
DU-145 = system: DU-145
SN12C = system: SN12C
A549 = system: A549
HCT-15 = system: HCT-15
MDA-MB-231 = system: MDA-MB-231
PC-3 = system: PC-3
SK-OV-3 = system: SK-OV-3
NCI-H460 = system: NCI-H460
SR = system: SR
Malme-3M = system: Malme-3M

## COc1ccc2c(c1)CCN=C2c1ccccc1CCCCl
HCT-116
  GI50: 18.2 µM (inactive)
SK-MEL-2
  GI50: 28 µM (inactive)
M14
  GI50: 29.3 µM (inactive)
SF-268
  GI50: 22.2 µM (inactive)
OVCAR-8
  GI50: 16.8 µM (inactive)
HOP-62
  GI50: 28.6 µM (inactive)
IGROV-1
  GI50: 20.1 µM (inactive)
EKVX
  GI50: 17.7 µM (inactive)
KM12
  GI50: 14.9 µM (inactive)
UO-31
  GI50: 10 µM (inactive)
CCRF-CEM
  GI50: 41.4 µM (inactive)
SK-MEL-28
  GI50: > 100 µM (inactive)
MCF7
  GI50: 23.1 µM (inactive)
HL-60
  GI50: 11.4 µM (inactive)
BT-549
  GI50: 38.5 µM (inactive)
COLO 205
  GI50: 11 µM (inactive)
MDA-MB-435
  GI50: 38.7 µM (inactive)
T47D
  GI50: 10.8 µM (inactive)
ACHN
  GI50: 24.3 µM (inactive)
RXF 393
  GI50: 22.6 µM (inactive)
SF-539
  GI50: 18.6 µM (inactive)
786-0
  GI50: 38.4 µM (inactive)
CAKI-1
  GI50: 24.4 µM (inactive)
SK-MEL-5
  GI50: 4.99 µM (inactive)
HCC 2998
  GI50: 6.25 µM (inactive)
UACC-257
  GI50: 23.7 µM (inactive)
HT-29
  GI50: 13.6 µM (inactive)
HOP-92
  GI50: 26.7 µM (inactive)
NCI/ADR-RES
  GI50: 26.4 µM (inactive)
UACC-62
  GI50: 36.1 µM (inactive)
RPMI-8226
  GI50: 1.84 µM (inactive)
OVCAR-4
  GI50: 13.7 µM (inactive)
SNB-19
  GI50: 7.67 µM (inactive)
MOLT-4
  GI50: 13 µM (inactive)
SNB-75
  GI50: 17.3 µM (inactive)
Hs-578T
  GI50: 16.5 µM (inactive)
SF-295
  GI50: 20.5 µM (inactive)
NCI-H226
  GI50: 15.7 µM (inactive)
OVCAR-3
  GI50: 46.1 µM (inactive)
A498
  GI50: 49.1 µM (inactive)
OVCAR-5
  GI50: 46.8 µM (inactive)
TK-10
  GI50: 94 µM (inactive)
SW-620
  GI50: > 100 µM (inactive)
NCI-H23
  GI50: 4.85 µM (inactive)
K562
  GI50: 5.62 µM (inactive)
U-251
  GI50: 71.6 µM (inactive)
NCI-H522
  GI50: 11.5 µM (inactive)
DU-145
  GI50: 36.5 µM (inactive)
SN12C
  GI50: 6.93 µM (inactive)
A549
  GI50: 24.2 µM (inactive)
HCT-15
  GI50: 23.6 µM
MDA-MB-231
  GI50: 19 µM (inactive)
PC-3
  GI50: 17 µM (inactive)
SK-OV-3
  GI50: 31.5 µM (inactive)
NCI-H460
  GI50: 13.6 µM (inactive)

## COc1ccc(C2=NNC(=O)c3ccccc3N2c2nc(-c3cccs3)nc3cc(OC)c(OC)cc23)cc1
HCT-116
  GI50: 3.92 µM (inactive)
SK-MEL-2
  GI50: 5.27 µM (inactive)
M14
  GI50: 4.29 µM (inactive)
SF-268
  GI50: 6.46 µM (inactive)
OVCAR-8
  GI50: 5.05 µM (inactive)
HOP-62
  GI50: 3.13 µM (inactive)
IGROV-1
  GI50: 11.1 µM (inactive)
EKVX
  GI50: 20.9 µM (inactive)
KM12
  GI50: 4.09 µM (inactive)
UO-31
  GI50: 4.34 µM (inactive)
SK-MEL-28
  GI50: 2.39 µM (inactive)
MCF7
  GI50: 3.36 µM (inactive)
BT-549
  GI50: 2.62 µM (inactive)
COLO 205
  GI50: 2.86 µM (inactive)
MDA-MB-435
  GI50: 3.75 µM (inactive)
T47D
  GI50: 2.76 µM (inactive)
ACHN
  GI50: 3.07 µM (inactive)
SF-539
  GI50: 2.79 µM (inactive)
786-0
  GI50: 2.32 µM (inactive)
CAKI-1
  GI50: 14.6 µM (inactive)
SK-MEL-5
  GI50: 3.72 µM (inactive)
HCC 2998
  GI50: 2.96 µM (inactive)
UACC-257
  GI50: 4.19 µM (inactive)
HT-29
  GI50: 3.15 µM (inactive)
HOP-92
  GI50: 2.86 µM (inactive)
NCI/ADR-RES
  GI50: 5.55 µM (inactive)
UACC-62
  GI50: 2.34 µM (inactive)
RPMI-8226
  GI50: 3.71 µM (inactive)
OVCAR-4
  GI50: 1.8 µM (inactive)
SNB-19
  GI50: 2.79 µM (inactive)
MOLT-4
  GI50: 16.6 µM (inactive)
SR
  GI50: 0.673 µM (active)
SNB-75
  GI50: 3.81 µM (inactive)
Hs-578T
  GI50: 3.85 µM (inactive)
SF-295
  GI50: 3.95 µM (inactive)
NCI-H226
  GI50: 4.56 µM (inactive)
OVCAR-3
  GI50: 2.61 µM (inactive)
A498
  GI50: 2.61 µM (inactive)
OVCAR-5
  GI50: 27.7 µM (inactive)
Malme-3M
  GI50: 2.6 µM (inactive)
TK-10
  GI50: 5.24 µM (inactive)
SW-620
  GI50: 4.86 µM (inactive)
NCI-H23
  GI50: 7.13 µM (inactive)
K562
  GI50: 24.3 µM (inactive)
U-251
  GI50: 3.3 µM (inactive)
NCI-H522
  GI50: 5.98 µM (inactive)
DU-145
  GI50: 6.49 µM (inactive)
SN12C
  GI50: 3.17 µM (inactive)
A549
  GI50: 5.6 µM (inactive)
HCT-15
  GI50: 5.92 µM
MDA-MB-231
  GI50: 2.81 µM (inactive)
PC-3
  GI50: 4.68 µM (inactive)
SK-OV-3
  GI50: 17 µM (inactive)
NCI-H460
  GI50: 4.43 µM (inactive)
